Laboratory results taken from patent publication US20230017045A1, “PYRIDINE AND PYRIMIDINE CARBOXYLATE HERBICIDES AND METHODS OF USE THEREOF” (Dow AgroSciences LLC, priority 2017, published 2023).
Where two headings read alike, the source gives them in different places.

System: test plant species
Assay: Post-emergent herbicidal activity test (greenhouse, foliar spray, visual growth reduction)
Format: in vivo
Conditions: post-emergence, 336 h, 140 g ai/ha
Method in brief: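 Seedlings were raised 7-21 d in a greenhouse under a 15 h photoperiod until the first or second true leaf. Each compound, dissolved in acetone:DMSO 97:3 and diluted into a surfactant-containing spray mixture, was then applied at 187 L/ha. Plants were subirrigated, and growth reduction was scored visually at 14 d.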

[1] = ECHCG: barnyardgrass (Echinochloa crus-galli), 14 days after application, read-out: Visual Growth Reduction (%) 14 Days After Application, ECHCG
[2] = IPOHE: ivy-leaf morning glory (Ipomoea hederacea), 14 days after application, read-out: Visual Growth Reduction (%) 14 Days After Application, IPOHE
[3] = KCHSC: kochia (Bassia scoparia), 14 days after application, read-out: Visual Growth Reduction (%) 14 Days After Application, KCHSC
[4] = ORYSA: rice (Oryza sativa), 14 days after application, read-out: Visual Growth Reduction (%) 14 Days After Application, ORYSA
[5] = SETFA: giant foxtail (Setaria faberi), 14 days after application, read-out: Visual Growth Reduction (%) 14 Days After Application, SETFA
[6] = SORVU: grain sorghum (Sorghum vulgare), 14 days after application, read-out: Visual Growth Reduction (%) 14 Days After Application, SORVU
[7] = STEME: common chickweed (Stellaria media), 14 days after application, read-out: Visual Growth Reduction (%) 14 Days After Application, STEME
[8] = TRZAS: wheat, spring (Triticum aestivum), 14 days after application, read-out: Visual Growth Reduction (%) 14 Days After Application, TRZAS
[9] = blackgrass (Alopecurus myosuroides), 14 Days After Application, read-out: Visual Growth Reduction (%) ALOMY
[10] = canada thistle (Cirsium arvense), 14 Days After Application, read-out: Visual Growth Reduction (%) CIRAR
[11] = crabgrass (Digitaria sanguinalis), 14 Days After Application, read-out: Visual Growth Reduction (%) DIGSA
[12] = lambsquarters (Chenopodium album), 14 Days After Application, read-out: Visual Growth Reduction (%) CHEAL
[13] = redroot pigweed (Amaranthus retroflexus), 14 Days After Application, read-out: Visual Growth Reduction (%) AMARE
[14] = wild oat (Avena fatua), 14 Days After Application, read-out: Visual Growth Reduction (%) AVEFA
[15] = yellow nutsedge (Cyperus esculentus), 14 Days After Application, read-out: Visual Growth Reduction (%) CYPES
[16] = ALOMY: blackgrass (Alopecurus myosuroides), 14 days after application, read-out: Visual Growth Reduction (%) 14 Days After Application, ALOMY
[17] = AMARE: redroot pigweed (Amaranthus retroflexus), 14 days after application, read-out: Visual Growth Reduction (%) 14 Days After Application, AMARE
[18] = AVEFA: wild oat (Avena fatua), 14 days after application, read-out: Visual Growth Reduction (%) 14 Days After Application, AVEFA
[19] = CHEAL: lambsquarters (Chenopodium album), 14 days after application, read-out: Visual Growth Reduction (%) 14 Days After Application, CHEAL
[20] = CIRAR: canada thistle (Cirsium arvense), 14 days after application, read-out: Visual Growth Reduction (%) 14 Days After Application, CIRAR
[21] = CYPES: yellow nutsedge (Cyperus esculentus), 14 days after application, read-out: Visual Growth Reduction (%) 14 Days After Application, CYPES
[22] = DIGSA: crabgrass (Digitaria sanguinalis), 14 days after application, read-out: Visual Growth Reduction (%) 14 Days After Application, DIGSA
[23] = barnyardgrass (Echinochloa crus-galli), 14 Days After Application, read-out: Visual Growth Reduction (%) ECHCG
[24] = common chickweed (Stellaria media), 14 Days After Application, read-out: Visual Growth Reduction (%) STEME
[25] = giant foxtail (Setaria faberi), 14 Days After Application, read-out: Visual Growth Reduction (%) SETFA
[26] = ivy-leaf morning glory (Ipomoea hederacea), 14 Days After Application, read-out: Visual Growth Reduction (%) IPOHE
[27] = johnsongrass (Sorghum vulgare), 14 Days After Application, read-out: Visual Growth Reduction (%) SORVU
[28] = kochia (Bassia scoparia), 14 Days After Application, read-out: Visual Growth Reduction (%) KCHSC
[29] = rice (Oryza sativa), 14 Days After Application, read-out: Visual Growth Reduction (%) ORYSA
[30] = wheat, spring (Triticum aestivum), 14 Days After Application, read-out: Visual Growth Reduction (%) TRZAS

SMILES	pest or weed control at 140 g/ha [1] [%]	pest or weed control at 140 g/ha [2] [%]	pest or weed control at 140 g/ha [3] [%]	pest or weed control at 140 g/ha [4] [%]	pest or weed control at 140 g/ha [5] [%]	pest or weed control at 140 g/ha [6] [%]	pest or weed control at 140 g/ha [7] [%]	pest or weed control at 140 g/ha [8] [%]	pest or weed control at 140 g/ha [9] [%]	pest or weed control at 140 g/ha [11] [%]	pest or weed control at 140 g/ha [12] [%]	pest or weed control at 140 g/ha [13] [%]	pest or weed control at 140 g/ha [14] [%]	pest or weed control at 140 g/ha [16] [%]	pest or weed control at 140 g/ha [17] [%]	pest or weed control at 140 g/ha [18] [%]	pest or weed control at 140 g/ha [19] [%]	pest or weed control at 140 g/ha [20] [%]	pest or weed control at 140 g/ha [21] [%]	pest or weed control at 140 g/ha [22] [%]	further results
COC(=O)c1nc(-c2cc3ncsc3cc2F)c(F)cc1Cl [F265, Methyl 3-chloro-5-fluoro-6-(6-fluorobenzo[d]thiazol-5-yl)picolinate]	0 to 29	0 to 29	0 to 29	0 to 29	0 to 29	0 to 29	0 to 29	0 to 29	0 to 29	0 to 29	75 to 84	0 to 29	0 to 29								pest or weed control at 140 g/ha [10]: 0 to 29%; pest or weed control at 140 g/ha [15]: 0 to 29%
COC(=O)c1nc(-c2c(Cl)cc(C(F)(F)F)cc2I)ccc1Cl [F214, methyl 3-chloro-6-(2-chloro-6-iodo-4-(trifluoromethyl)phenyl)picolinate]	0 to 29	95 to 100	75 to 84	0 to 29	75 to 84	85 to 94	30 to 44	75 to 84	45 to 59	95 to 100	95 to 100	75 to 84	60 to 74								pest or weed control at 140 g/ha [10]: 85 to 94%; pest or weed control at 140 g/ha [15]: 0 to 29%
COC(=O)c1nc(-c2ccc(OC)cc2Cl)ccc1Cl [F35, Methyl 3-chloro-6-(2-chloro-4-methoxyphenyl) picolinate]	0 to 29	0 to 29	0 to 29	0 to 29	0 to 29	0 to 29	0 to 29	0 to 29						0 to 29	30 to 44	0 to 29	0 to 29	0 to 29	0 to 29	0 to 29	
O=C(O)c1nc(-c2cc(Br)c(C(F)(F)F)cc2Cl)ccc1Cl [F349, 6-(5-Bromo-2-chloro-4-(trifluoromethyl)phenyl)-3-chloropicolinic acid]	0 to 29	95 to 100	85 to 94	0 to 29	75 to 84	85 to 94	0 to 29	85 to 94	60 to 74	75 to 84	95 to 100	60 to 74	60 to 74								pest or weed control at 140 g/ha [15]: 0 to 29%
O=C(O)c1nc(-c2cc3c(cc2Cl)OCO3)c(Cl)cc1Cl [F183, 3,5-Dichloro-6-(6-chlorobenzo[d][1,3]dioxol-5-yl)picolinic acid]	0 to 29	75 to 84	0 to 29	0 to 29	0 to 29	0 to 29	0 to 29	0 to 29						0 to 29	60 to 74	0 to 29	0 to 29	30 to 44	0 to 29	0 to 29	
COC(=O)c1nc(-c2cc(C)c(Cl)cc2Cl)ccc1Cl [F51, Methyl 3-chloro-6-(2,4-dichloro-5-methylphenyl) picolinate]	0 to 29		0 to 29	0 to 29	0 to 29	0 to 29	0 to 29	0 to 29						0 to 29	45 to 59	0 to 29	45 to 59	0 to 29	0 to 29	0 to 29	
COC(=O)c1nc(-c2ccc(Oc3ccc(F)cc3)cc2Cl)ccc1Cl [F123, Methyl 3-chloro-6-(2-chloro-4-(4-fluorophe)phenyl) picolinate]	0 to 29	30 to 44	0 to 29	0 to 29	0 to 29	0 to 29	0 to 29	0 to 29						0 to 29	0 to 29	0 to 29	0 to 29	0 to 29	0 to 29	0 to 29	
C#Cc1cc(Cl)c(C(=O)OC)nc1-c1ccc(C(F)(F)F)cc1Cl [F4, Methyl 3-chloro-6-(2-chloro-4-(trifluoromethyl)phenyl)-5-ethynylpicolinate]														0 to 29	0 to 29	0 to 29	85 to 94	75 to 84	0 to 29	0 to 29	pest or weed control at 140 g/ha [23]: 0 to 29%; pest or weed control at 140 g/ha [24]: 0 to 29%; pest or weed control at 140 g/ha [25]: 0 to 29%; pest or weed control at 140 g/ha [26]: 60 to 74%; pest or weed control at 140 g/ha [27]: 30 to 44%; pest or weed control at 140 g/ha [28]: 0 to 29%; pest or weed control at 140 g/ha [29]: 0 to 29%; pest or weed control at 140 g/ha [30]: 0 to 29%
COC(=O)c1nc(-c2ccc(C(C)F)cc2Cl)ccc1Cl (stereo not shown) [F14, methyl 3-chloro-6-(2-chloro-4-(1-fluoroethyl)phenyl)-picolinate]														0 to 29	0 to 29	0 to 29	85 to 94	0 to 29	0 to 29	0 to 29	pest or weed control at 140 g/ha [23]: 0 to 29%; pest or weed control at 140 g/ha [24]: 0 to 29%; pest or weed control at 140 g/ha [25]: 0 to 29%; pest or weed control at 140 g/ha [26]: 45 to 59%; pest or weed control at 140 g/ha [27]: 0 to 29%; pest or weed control at 140 g/ha [28]: 85 to 94%; pest or weed control at 140 g/ha [29]: 0 to 29%; pest or weed control at 140 g/ha [30]: 0 to 29%
